According to patent US10980866B2, “Alpha-1 anti-trypsin for treating liver diseases” (Hadasit Medical Research Services and Development Ltd., priority 2014, dated 2021):
Entries after “also recorded” stand apart in the source; their conditions may differ.

Legend:
[1] = test system: ConA-induced hepatitis mouse model; experiment: Concanavalin A-induced hepatitis model, liver histology score (H&E); format: in vivo, mice (C57BL/6); conditions: 15 hours following ConA; for Infiltrating leukocytes (%) / Lymphocyte adhesion (%) / Necrotic lesions (%): histological score, mean ± SD, AAT 0.35 mg/mouse IP, Dexamethasone 0.35 mg/mouse
Method: (§1) Animals—Male C57BL/6 mice (11-12 weeks old) were obtained from Harlan Laboratories (Jerusalem, Israel) and were maintained in the Animal Core of the Hadassah-Hebrew University Medical School. The mice received standard laboratory food and water ad libitum and were housed in a 12-hour light/dark cycle. All animal experiments were performed according to the guidelines and with the approval of the Hebrew University-Hadassah Institutional Committee for the Care and Use of Laboratory Animals.
(§2) Concanavalin A-induced hepatitis model—Concanavalin A (ConA, MP Biomedicals, USA) was dissolved in a solution consisting of 50 mM Tris pH 7, 150 mM NaCl, and 4 mM CaCl2 and injected into the tail vein at a dose of 500 μg/mouse (15 mg/kg) in 250 μl. Mice were sacrificed 15 hours following ConA injection. Mice (n=5-6 mice per group) were administered orally or intraperitoneally (IP), as indicated, DDW (control); Dexamethasone (0.35 mg/mouse, control); or alpha-1 anti-trypsin (AAT, Sigma A-9024) at a dose of 0.2, 0.35, 1.0 or 2.0 mg per mouse, 2 hours prior ConA treatment.
Histology—Mice were sacrificed at the indicated times and their livers were harvested. Paraffin-embedded liver sections were prepared from and sliced into 4-5 μm-thick sections and stained with hematoxylin-eosin (H&E). The sections were scored according to the extent of liver damage using a previously described method^13, 14 with the following parameters: lymphocyte adhesion to hepatic and portal veins and sinusoids, the number of infiltrating leukocytes into the liver parenchyma, and the number of necrotic lesions (all per 10× high-power field).

[2] = molecular target: 1-AZT, a misfolded but functionally active mutant of α1-antitrypsin (Homo sapiens, UniProt P01009, E366K); conditions: model cell culture system; cited from earlier work
[3] = test system: high fat diet (HFD) mouse model; experiment: High fat diet (HFD) with or without methionine choline deficient diet (MCD) fatty liver model; format: in vivo, mice (C57Bl); conditions: Example 3
Method: The effect of AAT on fatty liver disease is assessed by determining liver toxicity in a high fat diet (HFD) with or without methionine choline deficient diet (MCD) mouse model.
Blood is taken from the tail vein at the indicated time points and analyzed for:
Mice are sacrificed 14 weeks following beginning of treatment and analyzed for: • Weight • Epididymal fat weight (eq to visceral fat in humans) • MRI—to look at steatosis • ALT, AST • Serum for cytokines-what cytokines: IL2, 6, 4, 5, 12, IFN (gamma), TNF and TGF. IL-10, il-4, il-13, mcp1, • Adipokine—adiponectin which is anti-inflammatory adipokine and visfalatin • CBC including eosinophils • FACS for subsets of T cells • Assessment of eotaxin levels in the liver and in the adipose tissue by mRNA • Collect serum for Lipidomics to be conducted by OWL in Spain • Collect serum for mRNA of lymphocytes, to be performed in the USA by Ilumina sequencing machines • Liver fat quantification • Liver biopsy followed by histological evaluation: • 1. H&E staining • 2. Fat staining (IHC): Oil-R-O (frozen sections) • X2 non stained slides (paraffin embedded) • Snap freeze −80, ×3 samples (from each animal). • Assessment of fibrosis based on staining

[4] = test system: APAP-mediated liver damage mouse model; experiment: Acetaminophen-mediated hepatotoxicity model, serum liver enzymes; format: in vivo, mice (C57BL/6); conditions: 2 hours following APAP, 24 hours following APAP, vs control (DDW)
Method: as §1
Acetaminophen-mediated hepatotoxicity model—Acetaminophen (APAP)-mediated hepatotoxicity was induced in mice via oral administration of 4 mg APAP (Tiptipot, CST). Mice (n=5 mice per group) were administered IP DDW (control) or AAT at a dose of 0.25 or 0.5 mg per mouse, 2 hours following administration of APAP
(§3) Assessment of Liver toxicity—Serum was obtained from individual mice at the indicated times and the levels of aspartate aminotransferase (AST) and alanine aminotransferase (ALT) were determined using a standard automated analyzer.

[5] = test system: ConA-induced hepatitis mouse model; experiment: Concanavalin A-induced hepatitis model, serum IFN-γ by ELISA; format: in vivo, mice (C57BL/6); conditions: 15 hours following ConA
Method: as §1, §2
Cytokine measurement—Serum IFN-γ levels were measured at the indicated times in each animal using a commercially available ELISA kit (Quantikine, R&D Systems, MN, USA) according to manufacturer's instructions.

[6] = test system: ConA-induced hepatitis mouse model; experiment: Concanavalin A-induced hepatitis model, serum liver enzymes (ALT, AST); format: in vivo, mice (C57BL/6)
Method: as §1, §2, §3

[7] = AAT orally administered, 2 hours prior ConA, 15 hours following ConA

Sequence of 1-AZT, a misfolded but functionally active mutant of α1-antitrypsin (P01009 25-418 E366K): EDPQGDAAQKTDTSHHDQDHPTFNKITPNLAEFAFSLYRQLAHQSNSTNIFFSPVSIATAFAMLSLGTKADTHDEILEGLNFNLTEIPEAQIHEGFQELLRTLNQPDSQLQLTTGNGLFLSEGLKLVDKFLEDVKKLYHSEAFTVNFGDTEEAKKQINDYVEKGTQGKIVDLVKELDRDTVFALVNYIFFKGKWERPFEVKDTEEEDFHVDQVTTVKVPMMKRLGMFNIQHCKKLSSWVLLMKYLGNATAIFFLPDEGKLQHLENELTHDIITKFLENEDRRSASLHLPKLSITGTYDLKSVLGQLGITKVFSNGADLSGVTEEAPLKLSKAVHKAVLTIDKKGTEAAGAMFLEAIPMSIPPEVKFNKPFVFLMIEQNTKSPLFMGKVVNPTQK

Row | Compound | Infiltrating leukocytes (%) [1] | Lymphocyte adhesion (%) [1] | Necrotic lesions (%) [1] | secretion of 1-AZT [2] | symptoms of fatty liver disease [3] | serum levels of the AST liver enzyme ([4]; AAT 0.25 mg per mouse IP) | serum levels of the AST liver enzyme ([4]; AAT 0.5 mg per mouse IP) | serum IFNγ levels ([5]; AAT 1.0 mg per mouse IP, p<0.005) | serum IFNγ levels ([5]; AAT high dose 2.0 mg per mouse) | serum IFNγ levels ([5]; AAT low dose 0.35 mg per mouse) | number of infiltrating leukocytes into the liver parenchyma (in words) ([1]; AAT 0.35 mg per mouse IP) | serum levels of the ALT liver enzyme ([6]; AAT 0.35 mg per mouse IP, 2 hours prior ConA, 15 hours following ConA, p<0.005) | mice developing severe disease (severe hepatitis, serum ALT more than 1000 IU) ([6]; AAT 0.35 mg per mouse, compared to 100% in control (DDW) group, p<0.005) | serum levels of the ALT liver enzyme ([6]; AAT 1 mg per mouse IP, 2 hours prior ConA, 15 hours following ConA, p<0.005) | ALT serum levels ([6]; AAT 2 mg per mouse IP, 2 hours prior ConA, 15 hours following ConA) | AST levels ([6]; AAT IP, 2 hours prior ConA, 15 hours following ConA (FIG. 2)) | number of mice developing severe disease (serum ALT more than 1000 IU) ([6]; AAT at all doses tested) | ALT levels [6, 7] | AST levels [6, 7] | overall effect on the ConA-induced hepatitis model ([6]; IP administration of AAT)
1 | C[C@@H]1C[C@H]2[C@@H]3CCC4=CC(=O)C=C[C@]4(C)[C@@]3(F)[C@@H](O)C[C@]2(C)[C@@]1(O)C(=O)CO [Dexamethasone, reference compound] | 0.58 ± 2.5% | 0.58 ± 2.5% | 0% |  |  |  |  |  |  |  |  |  |  |  |  |  |  |  |  | 
2 | O=C(O)CCCc1ccccc1 [PBA, 4-phenylbutyric acid] |  |  |  | marked increase |  |  |  |  |  |  |  |  |  |  |  |  |  |  |  | 
3 | alpha-1 anti-trypsin [AAT] | 2.45 ± 8.33% | 2.8 ± 11.89% | 1 ± 1.67% |  | ameliorated symptoms of fatty liver disease | decrease | decrease | significant reduction | no significant effect | no significant effect | significant improvement; also recorded: reduced leukocyte infiltration | Statistically significant reduction | 50% | Statistically significant reduction | no effect | corresponded to the ALT levels | reduced the number of mice developing severe disease | no effect | no effect | dose-dependent beneficial effect
